In patent publication US20110097410A1, “FORMULATIONS OF PX COMPOUNDS” (priority 2007, published 2011):

Columns and labels:
[1] = test system: ischemia-induced impaired vasodilation; assay: ischemia-induced impaired vasodilation; format: in vivo, newborn piglets; conditions: for effect on impaired hypercapnic vasodilation after global ischemia: FIG. 11
Procedure: (§1) The ability of PX-18 nanoparticles to influence 1) basal and induced arterial dilation; and 2) ischemia-induced impaired vasodilation (due to bradykinin, N-methyl-D-aspartic acid (NMDA) and ischemia-reperfusion) was studied in newborn piglets (1-2-day old, n=44). The piglets were anesthetized, ventilated, and equipped with arterial and venous catheters and a closed cranial window. Xanoparticulate PX-18 was administered iv at a concentration of 6 mg/kg.
The protocol for testing the effect of ischemia-induced impaired vasodilation is preseted in FIG. 8. […] In addition, intravenous but not topical treatment with PX-18 restored impaired hypercapnic vasodilation after global ischemia (FIG. 11).

pial arterioles = assay: basal and induced pial arteriolar dilation and hemodynamics; format: in vivo, newborn piglets
Procedure: as §1

[2] = test system: ischemia-reperfusion in the heart; assay: infarct size after regional ischemia/reperfusion in the heart; format: in vivo, Rabbits; conditions: PX-18 60 mg/kg ip; P<0.05
Procedure: The protective effect of PX-18 during ischemia-reperfusion in the heart was assessed. Since opening of mitochondrial KATP channels are essential components of ischemic tolerance induced by preconditioning in heart, the role of these channels in PX-18-induced cardioprotection was also examined. Briefly, 180 mg of PX-18 was put into a small homogenizing tube containing 3 ml of ethylene glycol in a homogenizing tube and warming it to about 50° C. Several bursts of sonication (about 10 seconds) were applied in a nitrogen gas bath to minimize oxidation, followed by homogenization. This procedure was repeated 4-5 times until a uniform cloudy proportion that was easily injected through a needle was obtained. Procedures of this type generate PX-18 particles of a size in the micrometer range. Rabbits were treated with the sonicated preparation, of PX-18 (60 mg/kg ip). 30 minutes later the hearts were subjected to 30 minutes of regional ischemia followed by 3 hours of reperfusion. Mitochondrial KATP channel blocker 5-hydroxydecanoate (5-HD, 5 mg/kg iv) was given 10 min before ischemia/reperfusion. Infarct size was measured by computer morphometry of tetrazolium stained sections.

[3] = dissolution velocity: amount suspended in water after 5 minutes (gravimetry); format: physicochemical
Procedure: 1 ml of macrosuspension (PX powder, dispersed in water) and 1 ml of PX-18 nanosuspension (diameter 40 nm) was added to 9 ml of de-mineralised water and stirred with a magnetic stirrer for 5 minutes. Each 10 ml sample was then filtered to remove non-suspended PX-18, and the amount of suspended PX-18 was determined by gravimetry. While the concentration of PX-18 in both suspensions was 1% (w/w), about 91% of the nanoparticles had become suspended within 5 minutes compared to just 8.4% of the macrosuspension.
To farther assess the importance of nanoparticle size on the dissolution velocity of PX-18, the dissolution velocity of PX-18 nanoparticles with a size of 40 nm was compared to that of PX-18 nanoparticles with a size of 200 nm. The analysis was performed as described above. After 5 minutes, about 91% of the 40 nm particles were suspended, whereas die larger 200 nm nanoparticles were suspended to about 41%.

[4] = solubility in aqueous solutions; format: physicochemical
Excerpt: Despite the apparent efficacy of PX compounds in treating various disease conditions, their use is limited due to a problem of extremely low solubility. […] This very poor solubility generally leads to insufficient bioavailability alter administration, likely because the dissolution velocity is too slow.

Rabbits = conditions: rabbit, in vivo, iv
[5] = test system: hippocampus neurons after ischemia; assay: common carotid artery occlusion, alive hippocampal neurons; format: in vivo, Gerbils; conditions: 1% nanoparticle formulation, 40-50 nm, subcutaneously 5 min, 24 hr and 48 hr after ischemia, day 4
Procedure: Common carotid arteries of Gerbils (6 gerbils per group) were occluded for 5 minutes to induce ischemia. Thereafter, a nanoparticle formulation of PX-18 (1% formulation, particles size of 40-50 nanometers) was administered subcutaneously 5 min, 24 hr and 48 hr after ischemia. After surgery, the gerbils were returned to their cages where, upon awakening, they were able to resume their normal locomotor functions. They were sacrificed on day 4. The hippocampus was sectioned and the number of alive neurons was assessed. In the ischemic animals, sPLA2 unregulated within 24 hr after ischemia and most neurons were dead by 4 days. PX-18 reduced neuronal damage in a dose dependent manner, providing approximately 30% protection at a dose of 30 mg/kg and 45% protection at a dose of 60 mg/kg, […]

solubility in solvents = format: physicochemical
Excerpt: PX-18, a specific inhibitor of sPLA2, is a fatty moiety feat is soluble in methylene chloride, chloroform and ethyl acetate. […] Its solubility in water is typically very low.

[6] = particle size after high pressure homogenization (photon correlation spectroscopy); format: physicochemical
Procedure: PX-18 powder was dispersed in a 1% Tween 80 carrier. The composition of the formulation was 1% PX-18, 1% Tween 80 and 98% water. The obtained macrosuspension was passed through a micron LAB 40 homogenizer (APV Homogenizer Systems, Unna/Germany) at 1500 bar, applying one homogenization cycle. The particle size was determined by photon correlation spectroscopy (PCS, Malvern Zetasizer Nano ZS, Malvern Instruments, United Kingdom), The mean particle size (z-average) was 745 nm.
A second macrosuspension of PX-18 was prepared as described above, and subsequently homogenized. The homogenization parameters were 1500 bar and 20 homogenization cycles.
A suspension of 1% PX-13 was prepared in an aqueous preparation of 2% Planta Care 2000. After homogenization applying 20 cycles at 1500 bar, a PCS mean diameter of 33 nm was obtained.

CCCCCCCC/C=C\CCCCCCCC(=O)OCCN(CCOC(=O)CCCCCCC/C=C\CCCCCCCC)CCS(=O)(=O)O [PX-18]
effect on impaired hypercapnic vasodilation after global ischemia ([1]; intravenous treatment): restored | effect on ischemia-induced impaired vasodilation caused by N-methyl-D-aspartic acid ([1]; iv administered, NMDA 10^−4M, FIG. 10): counteracts | effect on ischemia-induced impaired vasodilation caused by bradykinin ([1]; iv administered, bradykinin 10^−8M, FIG. 9): counteracts | effect on impaired hypercapnic vasodilation after global ischemia ([1]; topical treatment): not topical | time to normalization of MABP and pial arteriole diameter (pial arterioles; after iv bolus, 6 mg/kg): 4 to 6 min | effect on basal and hypercapnia-induced (endothelium and COX dependent) pial arterial dilation (pial arterioles; intravenous, FIG. 6): did not influence | pial arteriole dilation (pial arterioles; iv bolus of nanoparticle formulation, 6 mg/kg, transient): 32±1% | mean arterial blood pressure (MABP) after bolus (pial arterioles; iv bolus of nanoparticle formulation, 6 mg/kg, transient decrease from 62±7 mmHg): 40±5 mmHg | pial arteriole dilation (Mean±SEM) (pial arterioles; nanoparticle formulation, 10^−4M, topically onto the brain surface): 16±5% | effect on PACAP induced (non-endothelium but COX-dependent) pial arteriolar dilation (pial arterioles; topical, FIG. 7): impaired | reduction of infarct size versus vehicle [2]: 43% | amount suspended ([3]; macrosuspension (powder, μm-sized particles), 1% (w/w), 1 ml in 9 ml de-mineralised water, stirred 5 minutes): 8.4% | amount suspended ([3]; nanoparticles with a size of 200 nm, after 5 minutes): about 41% | solubility in aqueous solutions [4]: approximately 24 μg/ml | survival (Rabbits): did not survive | protection against neuronal damage ([5]; 30 mg/kg): approximately 30% | protection against neuronal damage ([5]; 60 mg/kg): ~45% | solubility (solubility in solvents; in acetone and methanol): insoluble | solubility (solubility in solvents; in dimethylsulfoxide (DMSO)): limited solubility | solubility (solubility in solvents; in methylene chloride, chloroform and ethyl acetate): soluble | solubility (solubility in solvents; in water): very low

CCCCCCCC/C=C\CCCCCCCC(=O)OCC(COC(=O)CCCCCCC/C=C\CCCCCCCC)(COC(=O)CCCCCCC/C=C\CCCCCCCC)NCCS(=O)(=O)O [PX-13]
solubility in aqueous solutions [4]: about 5 μg/ml | PCS mean diameter ([6]; 1% PX-13 in aqueous 2% Planta Care 2000, 20 cycles at 1500 bar): 33 nm | particle size (PCS, z-average) ([6]; one homogenization cycle at 1500 bar): 400-900 nm
